According to paper PMC7349657, “Efficient Targeted Degradation via Reversible and Irreversible Covalent PROTACs” (Journal of the American Chemical Society, 2020):

Tests used:
Ramos cells = assay: Label-free quantitative proteomics in Ramos cells; assay type: cell-based, Homo sapiens; details: 24 h
Procedure: To assess their proteomic selectivity, we incubated the PROTACs at 50 or 100 nM for 24 h with Ramos cells and followed the change in protein abundance via quantitative label-free proteomics (Figure 7, Supporting Figure 6). In agreement with the Western blot analysis, BTK was efficiently degraded by all the PROTACs we tested. […] Ramos cells were incubated with each PROTAC (50 nM) or DMSO in quadruplicates for 24 h and were then subjected to label-free quantitative proteomics analysis. Each graph plots the Log2 fold-change of proteins in the treated samples compared to the DMSO controls (x-axis) vs the −log(p-value) of that comparison in a Student’s t test (y-axis). […]
(§1) supplemented with 300 mM imidazole). The His tag was cleaved by the addition of TEV protease with concomitant dialysis overnight into cleavage buffer (50 mM Tris, pH 8.0, 0.5 mM EDTA, 1 mM DTT) at 4°C. The resulting soluble protein was passed ov er Ni -NTA beads to remove the protease and purified further by gel filtration on a HiLoad_16/60_Superdex_75 (GE Healthcare) column equilibrated with 20 mM Tris, pH 8.0, 50 mM NaCl, 1 mM DTT. The pure protein was then flash-frozen in liquid nitrogen and stored at −80°C.
(§2) C57BL/6 mice were purchased from Harlan (Rehovot, Israel) and maintained in a pathogen-free facility, experiments were carried on 8-12 weeks old male mice. All exp eriments with mice were approved by the Weizmann Institute Animal Care and Use Committee.
(§3) Splenic cells from C57BL/6 mice were isolated by forcing spleen tissue through mesh into PBS containing 2% fetal calf serum and 1 mM EDTA and red blood cells were depleted by lysis buffer. Cells were cultured in 96-well U-b ottom dishes (1x10^6 cells/m L in RPMI 10% […]
(§4) nM, 10 nM, 1 nM, 0.1 nM) for 24 hours at 37° C in 5% humidified CO2 incubator. Following a 24 hours incubation, cells were stimulated with anti-IgM overnight (5 µg/mL, Sigma-Aldrich). Subsequently, cells were stained with anti-B220 (clone RA3-6B2, Biolegend) and anti-CD86 (clone GL-1, Biolegend) antibodies for 30 minutes at 4°C. Single cell suspensions were analyzed by a flow cytometer (CytoFlex, Beckman Coulter).
(§5) Cells were analyzed by intensity based, label-free mass spectrometry based proteomics.
(§6) Sample preparation: 106 Ramos cells were treated in four replicates with either compound or DMSO for 24 hours. Cells were then washed twice by centrifuge at 200 rcf, 4°C for 5 minutes, removing the supernatant and washed with ice cold PBS. Samp les were then centrifuged at 200 rcf, 4°C for 5 minutes, then supernatant was removed and samples were frozen at -80°C.
Samples were dispersed in 75 µl of 50 mM ammonium bicarbonate, and transferred to 1.8 mL glass vials. 75 µl of 10% SDS in 50 mM ammonium bicarbonate were added and the samples were heated to 96° C for 6 minutes. The samples were sonicated thoroughly in a sonication bath until the DNA was sheared as indicated by reduction in viscosity to level enabling easy pipettation. Total protein concentration was estimated using BCA as say and 30 µg from each sample was taken for the experiment. […]
to 60°C for 45 minutes. The samples were cooled to room temperature, and 1/20 volume of […]
200 mM iodoacetamide was added and the reaction was performed in the dark for 30 minutes.
At this point, 1/10 volume of 12% phosphoric acid was added, followed by 6 volume […]
of 90% methanol in 50 mM ammonium bicarbonate. The samples were loaded on S-trap Micro […]
columns (Protify), and washed 3 times with 90% methanol in 50 mM ammonium bicarbonate.
The columns were spun without washing to dry the methanol. Then, 1 µg of trypsin (Promga) […]
in 20 µl of 50 mM ammonium bicarbonate was added to each column, and they were incubated […]
at 47° C for 1. 5 hours. Then, 40 µl of 50 mM ammonium bicarbonate was added and the sample […]
was eluted and another 0. 5 µg of trypsin was added, fo llowed by overnight incubation at 37 ° C.
The columns themselves were further eluted with 40 µl 0.2% formic acid in water, followed […]

primary mouse B cells = assay: B cell activation after anti-IgM stimulation, CD86 staining; assay type: cell-based; details: at 1 μM
Procedure: Lastly, we assessed the ability of the PROTACs to abrogate the activation of primary mouse B cells in response to B cell receptor stimulation. For this purpose, primary B cells were treated with anti-IgM for 18 h,[36],[37] followed by staining for CD86, a B cell activation surface marker (Figure 8; Supporting Figure 7). […]
as §1, §2, §3, §4, §5, §6
Samples were dispersed in 75 µl of 50 mM ammonium bicarbonate, and transferred to 1.8 mL glass vials. 75 µl of 10% SDS in 50 mM ammonium bicarbonate were added and the samples were heated to 96° C for 6 minutes. The samples were sonicated thoroughly in a sonication bath until the DNA was sheared as indicated by reduction in viscosity to level enabling easy pipettation. Total protein concentration was estimated using BCA as say and 30 µg from each sample was taken for the experiment.

wild-type BTK = wild-type BTK (Homo sapiens, UniProt Q06187); assay: In vitro kinase activity assay, wild-type BTK (Nanosyn)
Chain of wild-type BTK (Q06187 whole entry, species assumed): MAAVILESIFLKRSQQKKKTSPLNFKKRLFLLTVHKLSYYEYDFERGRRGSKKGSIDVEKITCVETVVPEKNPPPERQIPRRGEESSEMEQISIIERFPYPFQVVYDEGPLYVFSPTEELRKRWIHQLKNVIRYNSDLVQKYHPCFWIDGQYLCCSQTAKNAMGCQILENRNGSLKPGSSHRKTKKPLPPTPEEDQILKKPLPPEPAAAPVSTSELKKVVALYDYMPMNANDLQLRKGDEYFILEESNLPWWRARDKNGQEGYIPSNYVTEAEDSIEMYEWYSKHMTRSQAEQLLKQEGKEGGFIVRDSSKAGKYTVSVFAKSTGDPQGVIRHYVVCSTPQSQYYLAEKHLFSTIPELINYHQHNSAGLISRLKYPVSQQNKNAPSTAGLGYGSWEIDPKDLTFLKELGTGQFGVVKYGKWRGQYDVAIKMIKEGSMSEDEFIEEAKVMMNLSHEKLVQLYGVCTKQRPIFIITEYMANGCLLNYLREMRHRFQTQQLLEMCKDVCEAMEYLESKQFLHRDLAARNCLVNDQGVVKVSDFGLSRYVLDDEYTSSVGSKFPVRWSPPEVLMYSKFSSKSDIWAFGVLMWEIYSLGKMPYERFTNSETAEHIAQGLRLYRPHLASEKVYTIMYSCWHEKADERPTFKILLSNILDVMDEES

CC(C)(C=C(C#N)C(=O)N1CCCC(n2nc(-c3ccc(Oc4ccccc4)cc3)c3c(N)ncnc32)C1)CCCOCCOCCOCCOCCOc1cccc2c1C(=O)N(C1CCC(=O)NC1=O)C2=O (centres unmarked) [RC-3]
activity against noncovalent off-targets CSK and LYN (Ramos cells; 50 or 100 nM): no activity | off-targets degraded (CSK, LYN, BLK) (Ramos cells; 50 or 100 nM): the only significant off-target of RC-3 was BLK | Difference for 50 nM, MED19 (Ramos cells; protein MED19 (A0JLT2), 50 nM, Log2 fold-change vs DMSO): 0.1151 | Difference for 100 nM, MED19 (Ramos cells; protein MED19 (A0JLT2), 100 nM, Log2 fold-change vs DMSO): 0.03137 | Difference for 50 nM, SAC3D1 (Ramos cells; protein SAC3D1 (A6NKF1), 50 nM, Log2 fold-change vs DMSO): -1.386 | Difference for 100 nM, SAC3D1 (Ramos cells; protein SAC3D1 (A6NKF1), 100 nM, Log2 fold-change vs DMSO): -0.4129 | Difference for 50 nM, TRAPPC13 (Ramos cells; protein TRAPPC13 (A5PLN9), 50 nM, Log2 fold-change vs DMSO): -0.1201 | Difference for 100 nM, TRAPPC13 (Ramos cells; protein TRAPPC13 (A5PLN9), 100 nM, Log2 fold-change vs DMSO): -0.2022 | Difference for 50 nM, GPR89B;GPR89A (Ramos cells; proteins GPR89B;GPR89A, 50 nM, Log2 fold-change vs DMSO): -0.3119 | Difference for 100 nM, GPR89B;GPR89A (Ramos cells; proteins GPR89B;GPR89A, 100 nM, Log2 fold-change vs DMSO): -0.8716 | Difference for 50 nM, MAP1LC3B;MAP1LC3B2;MAP1LC3A (Ramos cells; proteins MAP1LC3B;MAP1LC3B2;MAP1LC3A, 50 nM, Log2 fold-change vs DMSO): -0.1457 | Difference for 100 nM, MAP1LC3B;MAP1LC3B2;MAP1LC3A (Ramos cells; proteins MAP1LC3B;MAP1LC3B2;MAP1LC3A, 100 nM, Log2 fold-change vs DMSO): 0.000999 | inhibition of B cell activation compared to ibrutinib (primary mouse B cells): superior activity to ibrutinib | IC50 (wild-type BTK): 0.4 nM
